Reference: US20250186408A1, “TREATMENT OF PHARMACORESISTANT EPILEPSY” (Katholieke Universiteit Leuven, priority 2021, published 2025)
Where two headings read alike, the source gives them in different places.

Experiments:
[1] = target: OPRK1 (Homo sapiens, UniProt P41145); test: cAMP OPRK1 Agonist; conditions: for Emax: read-out: Max response
Experimental: (§3) In vitro pharmacological profiling of compounds was done against 78 functional assays for 47 common off-targets (30) by Eurofins DiscoverX Corporation (Fremont, CA, USA) using their SAFETYscan E/IC50 ELECT service (Cat Ref 87-1003DR, Safety47 Panel Dose Response). […] Compounds were tested in a range of 10 concentrations, following a 3-fold serial dilution, starting from 10 μM.
(§4) cAMP Hunter cell lines were expanded from freezer stocks. Prior to testing, cells were seeded in a total volume of 20 μL into white walled 384-well microplates and incubated at 37° C. cAMP modulation was determined using the DiscoverX HitHunter cAMP XS+ assay. For Gs agonist determination, cells were incubated with sample to induce response. For Gi agonist determination, cells were incubated with sample in the presence of EC80 forskolin to induce response. For both conditions, media was aspirated from cells and replaced with 15 μL 2:1 HBSS/10 mM HEPES:cAMP XS+ Ab reagent. Intermediate dilution of sample stocks was performed to generate 4× sample in assay buffer (containing 4×EC80 forskolin in the case of antagonist determination). 5 μL of 4× sample was added to cells and incubated at 37° C. or room temperature (RT) for 30 or 60 min. Final assay vehicle concentration was 1%. For antagonist determination, cells were pre-incubated with sample followed by agonist challenge at the EC80 concentration. Media was aspirated from cells and replaced with 10 μL 1:1 HBSS/HEPES:cAMP XS+ Ab reagent. 5 μL of 4× compound was added to the cells and incubated at 37° C. or RT for 30 min. 5 μL of 4×EC80 agonist was added to the cells and incubated at 37° C. or RT for 30 or 60 min. For Gi coupled GPCRs, EC80 forskolin was included. […] Microplates were read following signal generation with a PerkinElmer Envision™ instrument for chemiluminescent signal detection. Compound activity was analyzed using CBIS data analysis suite (ChemInnovation, CA).

[2] = target: DRD2S (Homo sapiens, UniProt P14416); test: cAMP DRD2S Antagonist; conditions: for Emax: read-out: Max response
Experimental: as §3, §4

[3] = target: AVPR1A (Homo sapiens, UniProt P37288); test: Calcium Flux AVPR1A Agonist; assay type: cell-based; conditions: for EC50: read-out: RC50, result type EC50; for Emax: read-out: Max response
AVPR1A, sequence (P37288 whole entry): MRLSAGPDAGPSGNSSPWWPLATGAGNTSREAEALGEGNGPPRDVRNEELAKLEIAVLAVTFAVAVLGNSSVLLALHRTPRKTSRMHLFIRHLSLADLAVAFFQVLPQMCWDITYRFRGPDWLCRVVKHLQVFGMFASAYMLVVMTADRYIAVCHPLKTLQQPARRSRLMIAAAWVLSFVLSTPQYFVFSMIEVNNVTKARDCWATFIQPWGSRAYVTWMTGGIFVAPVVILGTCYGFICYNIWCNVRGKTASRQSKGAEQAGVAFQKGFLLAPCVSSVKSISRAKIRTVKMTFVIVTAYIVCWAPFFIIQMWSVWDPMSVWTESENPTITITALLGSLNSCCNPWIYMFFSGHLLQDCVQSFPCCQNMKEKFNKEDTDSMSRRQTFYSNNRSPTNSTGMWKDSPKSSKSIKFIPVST
Experimental: (§1) (≤0.2% DMSO concentration). Assays were performed in 1× dye loading buffer consisting of 1× Dye (DiscoverX, Calcium No Wash^PLUS kit, Catalog No. 90-0091), 1× Additive A and 2.5 mM Probenecid in HBSS/20 mM HEPES. Probenecid was prepared fresh. Prior to testing, media was aspirated from cells and replaced with 25 μL dye loading buffer. Cells were incubated for 45 min at 37° C. and then 20 min at RT. For agonist determination, 25 μL of 2× compound in HBSS/20 mM HEPES was added using a FLIPR Tetra (MDS). […] 25 μL of 2× sample was added and cells were incubated for 30 min at RT in the dark to equilibrate plate temperature. After incubation, antagonist determination was initiated by addition of 25 μL of 1× compound with 3×EC80 agonist using FLIPR. For both agonist and antagonist formats, activity was measure on a FLIPR Tetra (MDS). Calcium mobilization was monitored for 2 min with a 5 sec baseline read.
(§2) FLIPR read—Area under the curve, was calculated for the entire 2 min read.

[4] = target: CAV1.2 (Homo sapiens, UniProt Q13936); test: Ion Channel CAV1.2 Blocker; assay type: cell-based
CAV1.2, sequence (Q13936 whole entry): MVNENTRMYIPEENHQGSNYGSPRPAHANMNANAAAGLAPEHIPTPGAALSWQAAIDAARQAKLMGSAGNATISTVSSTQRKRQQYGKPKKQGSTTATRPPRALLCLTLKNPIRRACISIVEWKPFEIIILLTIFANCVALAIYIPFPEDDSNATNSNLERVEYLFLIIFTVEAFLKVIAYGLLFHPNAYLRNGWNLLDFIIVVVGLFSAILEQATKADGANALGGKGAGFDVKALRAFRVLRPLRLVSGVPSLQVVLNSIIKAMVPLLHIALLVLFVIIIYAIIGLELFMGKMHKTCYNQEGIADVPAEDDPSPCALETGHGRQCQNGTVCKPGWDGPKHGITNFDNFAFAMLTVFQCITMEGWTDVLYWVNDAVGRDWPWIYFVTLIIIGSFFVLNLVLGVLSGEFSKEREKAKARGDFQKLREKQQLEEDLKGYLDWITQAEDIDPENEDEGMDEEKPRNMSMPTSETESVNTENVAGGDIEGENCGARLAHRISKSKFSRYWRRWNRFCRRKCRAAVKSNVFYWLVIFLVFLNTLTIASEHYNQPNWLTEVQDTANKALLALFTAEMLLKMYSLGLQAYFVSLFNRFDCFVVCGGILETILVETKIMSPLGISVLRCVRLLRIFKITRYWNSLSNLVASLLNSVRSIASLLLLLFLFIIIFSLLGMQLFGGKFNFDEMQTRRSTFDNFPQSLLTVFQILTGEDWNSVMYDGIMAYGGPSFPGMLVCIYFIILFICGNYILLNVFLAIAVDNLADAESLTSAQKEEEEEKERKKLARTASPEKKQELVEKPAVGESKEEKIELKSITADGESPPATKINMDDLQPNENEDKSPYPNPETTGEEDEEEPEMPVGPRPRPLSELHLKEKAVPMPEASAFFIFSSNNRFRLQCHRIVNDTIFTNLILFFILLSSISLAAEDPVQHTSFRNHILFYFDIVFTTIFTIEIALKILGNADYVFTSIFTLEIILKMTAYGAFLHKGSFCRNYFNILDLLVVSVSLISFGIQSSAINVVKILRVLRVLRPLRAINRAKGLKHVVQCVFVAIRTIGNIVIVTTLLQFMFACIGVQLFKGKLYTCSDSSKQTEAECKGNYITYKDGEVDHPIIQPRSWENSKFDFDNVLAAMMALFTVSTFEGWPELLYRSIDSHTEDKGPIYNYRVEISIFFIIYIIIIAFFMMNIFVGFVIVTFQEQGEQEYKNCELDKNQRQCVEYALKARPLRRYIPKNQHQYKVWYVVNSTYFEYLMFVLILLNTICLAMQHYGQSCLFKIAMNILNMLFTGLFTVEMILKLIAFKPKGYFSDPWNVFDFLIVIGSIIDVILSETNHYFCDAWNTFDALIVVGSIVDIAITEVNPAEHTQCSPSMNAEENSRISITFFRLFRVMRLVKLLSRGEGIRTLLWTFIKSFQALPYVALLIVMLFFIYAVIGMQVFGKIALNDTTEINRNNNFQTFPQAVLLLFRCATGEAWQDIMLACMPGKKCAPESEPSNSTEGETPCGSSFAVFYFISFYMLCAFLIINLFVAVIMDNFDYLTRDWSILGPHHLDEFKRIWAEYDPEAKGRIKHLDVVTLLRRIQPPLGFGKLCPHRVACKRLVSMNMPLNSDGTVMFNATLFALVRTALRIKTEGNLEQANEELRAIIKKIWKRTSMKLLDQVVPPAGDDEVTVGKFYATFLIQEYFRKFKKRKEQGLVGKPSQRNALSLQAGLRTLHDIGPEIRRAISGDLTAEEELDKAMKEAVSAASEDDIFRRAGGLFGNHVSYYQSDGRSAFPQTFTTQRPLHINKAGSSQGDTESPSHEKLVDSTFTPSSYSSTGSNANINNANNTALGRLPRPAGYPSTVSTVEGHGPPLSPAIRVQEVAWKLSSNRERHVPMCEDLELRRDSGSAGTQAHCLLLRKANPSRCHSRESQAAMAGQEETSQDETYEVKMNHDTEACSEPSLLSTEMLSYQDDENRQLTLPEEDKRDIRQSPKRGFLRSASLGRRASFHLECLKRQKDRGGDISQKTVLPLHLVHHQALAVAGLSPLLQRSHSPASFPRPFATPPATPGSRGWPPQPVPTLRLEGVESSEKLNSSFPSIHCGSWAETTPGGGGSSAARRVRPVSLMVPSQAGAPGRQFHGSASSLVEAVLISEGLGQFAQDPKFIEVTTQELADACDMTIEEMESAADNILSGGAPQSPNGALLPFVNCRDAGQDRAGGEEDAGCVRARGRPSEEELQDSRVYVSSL
CAV1.2, sequence (Q08289 whole entry partner): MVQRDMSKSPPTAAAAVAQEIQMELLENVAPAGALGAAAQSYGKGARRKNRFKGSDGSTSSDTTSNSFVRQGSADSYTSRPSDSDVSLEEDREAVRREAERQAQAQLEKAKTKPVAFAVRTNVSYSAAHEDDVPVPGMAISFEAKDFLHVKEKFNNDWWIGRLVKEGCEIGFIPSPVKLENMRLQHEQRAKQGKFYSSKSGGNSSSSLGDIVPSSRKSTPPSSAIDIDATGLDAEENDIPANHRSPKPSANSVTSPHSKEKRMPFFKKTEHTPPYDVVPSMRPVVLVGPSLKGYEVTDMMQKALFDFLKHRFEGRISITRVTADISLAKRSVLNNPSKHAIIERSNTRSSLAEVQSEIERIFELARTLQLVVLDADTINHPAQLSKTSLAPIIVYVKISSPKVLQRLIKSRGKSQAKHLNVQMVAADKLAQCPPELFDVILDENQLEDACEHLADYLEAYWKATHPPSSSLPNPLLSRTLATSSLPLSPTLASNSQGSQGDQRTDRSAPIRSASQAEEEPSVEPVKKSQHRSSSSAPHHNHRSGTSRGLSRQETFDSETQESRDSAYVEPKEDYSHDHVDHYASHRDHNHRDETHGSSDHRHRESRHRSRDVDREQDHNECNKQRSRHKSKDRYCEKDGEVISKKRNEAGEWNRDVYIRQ
CAV1.2, sequence (P54289 25-956 partner limits assumed): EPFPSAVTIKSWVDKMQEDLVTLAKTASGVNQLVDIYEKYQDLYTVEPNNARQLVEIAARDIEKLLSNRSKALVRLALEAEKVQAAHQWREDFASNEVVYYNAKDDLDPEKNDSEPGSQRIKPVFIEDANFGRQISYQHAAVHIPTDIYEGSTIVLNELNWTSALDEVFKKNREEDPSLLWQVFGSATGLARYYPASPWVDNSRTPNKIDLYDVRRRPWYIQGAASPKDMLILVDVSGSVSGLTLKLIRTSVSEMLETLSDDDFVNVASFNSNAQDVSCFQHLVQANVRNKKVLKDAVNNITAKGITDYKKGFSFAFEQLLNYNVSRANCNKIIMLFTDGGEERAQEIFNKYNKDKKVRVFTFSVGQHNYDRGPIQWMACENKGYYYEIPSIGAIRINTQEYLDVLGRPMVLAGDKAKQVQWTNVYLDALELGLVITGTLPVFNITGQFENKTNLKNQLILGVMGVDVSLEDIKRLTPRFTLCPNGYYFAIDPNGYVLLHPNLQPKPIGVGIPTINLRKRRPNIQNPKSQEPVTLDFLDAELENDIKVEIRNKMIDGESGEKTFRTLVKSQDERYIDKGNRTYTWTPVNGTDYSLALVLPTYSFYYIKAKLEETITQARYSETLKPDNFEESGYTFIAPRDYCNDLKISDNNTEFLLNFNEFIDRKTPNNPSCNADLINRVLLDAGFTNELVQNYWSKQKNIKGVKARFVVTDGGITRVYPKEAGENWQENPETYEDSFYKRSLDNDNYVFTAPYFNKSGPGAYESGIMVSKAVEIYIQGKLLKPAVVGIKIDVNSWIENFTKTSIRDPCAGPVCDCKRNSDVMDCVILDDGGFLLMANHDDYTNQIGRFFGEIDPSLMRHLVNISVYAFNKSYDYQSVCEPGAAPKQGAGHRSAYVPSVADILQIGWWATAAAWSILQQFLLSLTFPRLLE
CAV1.2, sequence (P54289 957-1103 partner limits assumed): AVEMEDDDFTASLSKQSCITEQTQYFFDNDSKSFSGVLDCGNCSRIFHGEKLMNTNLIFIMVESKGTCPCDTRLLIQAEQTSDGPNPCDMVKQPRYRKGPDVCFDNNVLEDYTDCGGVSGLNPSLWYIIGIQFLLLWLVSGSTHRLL

[5] = target: nAChR (a4/b2) (Homo sapiens, UniProt P17787+P43681); test: Ion Channel nAChR (a4/b2) Opener; assay type: cell-based; conditions: for Emax: Ion Channel nAChR (a4/b2) Opener, read-out: Max response
[6] = target: T1, ROCK1 (Homo sapiens, UniProt Q13464); test: Binding (KINOMEscan) ROCK1 Inhibitor; conditions: for IC50: read-out: RC50, result type IC50; for Emax: read-out: Max response
T1 construct: purchased Eurofins DiscoverX Corporation 87-1003DR; host or cells: E. coli BL21-derived host (T7 phage) or HEK-293
Experimental: For most assays, kinase-tagged T7 phage strains were grown in parallel in 24-well blocks in an E. coli host derived from the BL21 strain. E. coli were grown to log-phase and infected with T7 phage from a frozen stock (multiplicity of infection=0.4) and incubated with shaking at 32° C. until lysis (90-150 min). The lysates were centrifuged (6,000×g) and filtered (0.2 μm) to remove cell debris. The remaining kinases were produced in HEK-293 cells and subsequently tagged with DNA for qPCR detection. Streptavidin-coated magnetic beads were treated with biotinylated small molecule ligands for 30 min at RT to generate affinity resins for kinase assays. The liganded beads were blocked with excess biotin and washed with blocking buffer (SeaBlock (Pierce), 1% BSA, 0.05% Tween 20, 1 mM DTT) to remove unbound ligand and to reduce non-specific phage binding. […] All reactions were performed in polypropylene 384-well plates in a final volume of 0.02 mL. […] The beads were then re-suspended in elution buffer (1×PBS, 0.05% Tween 20, 0.5 μM non-biotinylated affinity ligand) and incubated at RT with shaking for 30 min. The kinase concentration in the eluates was measured by qPCR.
The kinase concentration in the eluates was measured by qPCR. qPCR reactions were assembled by adding 2.5 μL of kinase eluate to 7.5 μL of qPCR master mix containing 0.15 μM amplicon primers and 0.15 μM amplicon probe. The qPCR protocol consisted of a 10 min hot start at 95° C., followed by 35 cycles of 95° C. for 15 sec, 60° C. for 1 min.
Binding constants (Kds) were calculated with a standard dose-response curve using the Hill equation: […]

[7] = target: T2, CCKAR (Homo sapiens, UniProt P32238); test: Calcium Flux CCKAR Agonist; assay type: cell-based; conditions: for EC50: read-out: RC50, result type EC50; for Emax: read-out: Max response
T2 sequence (P32238 1-428): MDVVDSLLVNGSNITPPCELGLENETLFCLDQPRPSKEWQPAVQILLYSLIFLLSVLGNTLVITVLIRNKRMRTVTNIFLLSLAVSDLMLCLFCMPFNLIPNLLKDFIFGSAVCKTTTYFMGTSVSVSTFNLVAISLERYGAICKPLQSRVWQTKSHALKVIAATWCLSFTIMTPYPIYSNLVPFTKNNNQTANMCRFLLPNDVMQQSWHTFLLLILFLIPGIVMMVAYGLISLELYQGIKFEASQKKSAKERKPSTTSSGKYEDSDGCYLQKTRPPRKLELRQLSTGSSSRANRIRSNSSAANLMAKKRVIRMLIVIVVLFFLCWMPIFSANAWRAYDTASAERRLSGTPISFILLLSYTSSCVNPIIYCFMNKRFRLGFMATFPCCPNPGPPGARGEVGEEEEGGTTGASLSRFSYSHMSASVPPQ
Experimental: as §1, §2

[8] = target: HTR2A (Homo sapiens, UniProt P28223); test: Calcium Flux HTR2A Antagonist; conditions: for Emax: read-out: Max response
Experimental: In vitro pharmacological profiling of compounds was done against 78 functional assays for 47 common off-targets (30) by Eurofins DiscoverX Corporation (Fremont, CA, USA) using their SAFETYscan E/IC50 ELECT service (Cat Ref 87-1003DR, Safety47 Panel Dose Response). […] Compounds were tested in a range of 10 concentrations, following a 3-fold serial dilution, starting from 10 μM. The assays were performed utilizing the PathHunter enzyme fragment complementation (EFC) technology, FLIPR®-based cellular screening assays, and KINOMEscan kinase binding assays.
Prior to testing, cells (10,000 cells/well) were expanded from freezer stocks and seeded into a total volume of 50 μL into black walled, clear-bottom, Poly-D-lysine coated 384-well microplates and incubated at 37° C. […] Assays were performed in 1× dye loading buffer consisting of 1× Dye (DiscoverX, Calcium No Wash^PLUS kit, Catalog No. 90-0091), 1× Additive A and 2.5 mM Probenecid in HBSS/20 mM HEPES. Probenecid was prepared fresh. Prior to testing, media was aspirated from cells and replaced with 25 μL dye loading buffer. Cells were incubated for 45 min at 37° C. and then 20 min at RT. For agonist determination, 25 μL of 2× compound in HBSS/20 mM HEPES was added using a FLIPR Tetra (MDS). For antagonist determination, cells were pre-incubated with sample followed by agonist challenge at the EC80 concentration. 25 μL of 2× sample was added and cells were incubated for 30 min at RT in the dark to equilibrate plate temperature. After incubation, antagonist determination was initiated by addition of 25 μL of 1× compound with 3×EC80 agonist using FLIPR. For both agonist and antagonist formats, activity was measure on a FLIPR Tetra (MDS). Calcium mobilization was monitored for 2 min with a 5 sec baseline read.
FLIPR read—Area under the curve, was calculated for the entire 2 min read. Compound activity was analysed using CBIS data analysis suite (ChemInnovation, CA).

[9] = target: T3, HTR1A (Homo sapiens, UniProt P08908); test: cAMP HTR1A Agonist; conditions: for Emax: read-out: Max response
T3 sequence (P08908 1-422): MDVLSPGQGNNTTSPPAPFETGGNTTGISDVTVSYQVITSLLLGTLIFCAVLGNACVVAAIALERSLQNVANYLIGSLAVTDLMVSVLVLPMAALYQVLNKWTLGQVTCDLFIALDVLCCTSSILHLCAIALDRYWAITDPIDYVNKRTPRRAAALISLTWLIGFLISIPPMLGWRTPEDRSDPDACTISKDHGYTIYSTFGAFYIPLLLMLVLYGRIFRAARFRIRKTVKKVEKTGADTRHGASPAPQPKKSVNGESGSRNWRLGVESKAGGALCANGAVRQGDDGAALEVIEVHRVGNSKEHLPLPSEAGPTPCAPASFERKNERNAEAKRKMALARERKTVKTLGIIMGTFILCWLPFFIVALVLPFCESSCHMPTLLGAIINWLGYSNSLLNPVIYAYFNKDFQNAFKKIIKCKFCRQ
Experimental: as §3, §4

DRD2S, sequence (P14416 1-414 isoform P14416-2): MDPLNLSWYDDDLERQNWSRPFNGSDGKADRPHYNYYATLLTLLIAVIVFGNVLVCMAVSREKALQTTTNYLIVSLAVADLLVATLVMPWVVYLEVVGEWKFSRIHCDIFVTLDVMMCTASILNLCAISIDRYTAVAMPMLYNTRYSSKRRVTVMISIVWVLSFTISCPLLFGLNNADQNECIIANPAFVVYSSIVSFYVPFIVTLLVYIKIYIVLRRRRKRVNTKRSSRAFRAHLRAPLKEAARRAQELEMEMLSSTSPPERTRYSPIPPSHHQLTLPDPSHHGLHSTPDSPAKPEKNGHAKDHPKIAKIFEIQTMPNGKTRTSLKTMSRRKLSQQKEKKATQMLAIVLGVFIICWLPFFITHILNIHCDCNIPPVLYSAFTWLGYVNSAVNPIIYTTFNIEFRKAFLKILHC

For CC(C)(C)c1ccc(C#CC(O)c2ccccc2)cc1 (racemic) [Compound 3.3, rac-3-(4-(tert-butyl)phenyl)-1-phenylprop-2-yn-1-ol], the EC50 [1] was > 10 µM, the Emax [1] was 0% and the IC50 [2] was 7.9 µM. The Emax [2] was 63.5%, the EC50 ([3]; Calcium Flux AVPR1A Agonist) was > 10 µM and the Emax [3] was 8.7%. For the same compound, the IC50 [4] was > 10 µM, the Emax at 30 min ([4]; Ion Channel CAV1.2 Blocker, read-out: Max response) was 7.2% and the EC50 [5] was > 10 µM. For the same compound, the Emax [5] was 0%, the IC50 ([6]; Binding ROCK1 Inhibitor) was > 10 µM and the Emax [6] was 0%. The EC50 ([7]; Calcium Flux CCKAR Agonist) was > 10 µM, the Emax [7] was 0.2% and the IC50 [8] was > 10 µM. For the same compound, the Emax [8] was 0%, the EC50 [9] was > 10 µM and the Emax [9] was 0%.
With Clc1cccc(C#Cc2n[nH]c3ncccc23)c1 [Compound 10.1, 3-((3-chlorophenyl)ethynyl)-1H-pyrazolo[3,4-b]pyridine] the EC50 [1] was > 10 µM, the Emax [1] was 5.4% and the IC50 [2] was > 10 µM. The Emax [2] was 0%, the Emax ([3]; Calcium Flux AVPR1A Agonist) was 7.9% and the EC50 ([3]; Calcium Flux AVPR1A Agonist) was > 10 µM. The Emax at 30 min [4] was 0%, the IC50 [4] was > 10 µM and the EC50 [5] was > 10 µM. For the same compound, the Emax [5] was 0%, the Emax ([6]; Binding ROCK1 Inhibitor) was 4.2% and the IC50 ([6]; Binding ROCK1 Inhibitor) was > 10 µM. The Emax ([7]; Calcium Flux CCKAR Agonist) was 0.3%, the EC50 ([7]; Calcium Flux CCKAR Agonist) was > 10 µM and the IC50 [8] was > 10 µM. The Emax [8] was 0%, the EC50 [9] was > 10 µM and the Emax [9] was 9.1%.
